# Measurements published in US9453242B2, “Method and culture medium for preparing mammalian ovum or embryo in which zona pellucida has been thinned or eliminated, and method for fertilization using mammalian ovum prepared by same method” (NATIONAL UNIVERISTY CORPORATION KUMAMOTO UNIVERSITY, priority 2010, dated 2016).
# What was measured:
# [1] = test system: 2-cell stage embryos transplanted into female mice; details: fertilization and incubation in HTF with 1 mM glutathione; frozen C57BL/6J sperms
# Excerpt: As the receptive female, ICR mice are used, and on the day before transplantation, external genitals are observed and those in the proestrus stage are selected and allowed to live together with vasoligated males. On the following day, those showing vaginal plug are used as the receptive female (on day 1 of pseudopregnancy). The skin and abdominal wall of the anesthetized receptive female are incised, and part of ovary, oviduct and uterus is exposed to the outside of the body through the incised portion, and fat adhered to ovary is fixed by a clamp. A 200 μl drop for transplantation is produced at the center of a dish, and embryos to be transplanted (20/individual) are transferred into the drop for transplantation. Next, 10 embryos are sucked together with a small amount of an incubation solution into a transplantation capillary. About ½ to ⅔ of the circumference of oviduct is incised, and the capillary containing embryos is inserted through the incised portion toward ampulla of oviduct and embryos are transplanted. Also into the opposite oviduct, embryos are transplanted by the same operation procedure.
# The offspring rate (implanting rate) after embryo transplantation is determined according to the following formula. Offspring development rate (%)=(number of offspring)/(number of transplanted embryo)×100 […]
# [2] = test system: frozen sperms of C57BL/6J mice; test: In vitro fertilization after sperm pre-incubation with MBCD and/or glutathione; type: cell-based, mouse; details: for number of 2-cell stage embryo(%) / number of 2-cell stage embryo: sperm pre-incubation MBCD −
# Procedure: A sperm suspension is pre-incubated in 90 μl of a TYH culture medium at 37° C. for 30 minutes, and under a stereomicroscope, sperms showing motility are collected, avoiding nonmotile sperms, and used for fertilization. The pre-incubated sperm suspension (10 μl) is added to 90 μl of an HTF culture medium (±glutathione) into which cumulus-oocyte complexes (COCs) have been previously introduced (insemination), and these are co-incubated in an incubator for 5 to 6 hours (37° C., 5% CO2), thereby performing fertilization. Thereafter, the ovum is washed with drops of new HTF, and the ovum is observed. Those judged to parthenogenetic (only one pronucleus is recognized in ooplasm) are excluded, and on the following day (24 hours after insemination), only 2-cell stage embryos are selected, and fertilization rate is determined according to the following formula. In vitro fertilization rate (%)=(number of 2-cell stage embryo)/(number of 2-cell stage embryo+number of unfertilized ovum)×100
# The TYH culture medium used for pre-incubation of sperms was prepared according to the above-described composition excepting that polyvinyl alcohol (1.0 mg/ml, available from SIGMA) was used instead of bovine serum albumin, and methyl-β-cyclodextrin (0.75 mM, available from SIGMA) was added. Further, the concentration of glutathione in the TYH culture medium was 1 mM, preparation was carried out in the same manner as in Example 1, and glutathione was added to the TYH culture medium directly before use. The influence on fertilization rate was compared among those containing methyl-β-cyclodextrin, those containing glutathione and those containing both compounds.
# Fertilization was conducted with 90 μl of an HTF culture medium (in the case of addition of glutathione, the concentration was 1 mM) containing cumulus-oocyte complexes (COCs), in the same manner as in Example 1 (IVF/glutathione in table). As the sperm, frozen sperms of C57BL/6J mice were used, and processed according to FIG. 1. Thawed sperms were pre-incubated in a TYH culture medium (±glutathione, ±methyl-β-cyclodextrin) at 37° C. for 30 minutes, and sperms showing motility were collected and used for fertilization. The experiment was conducted five times.
# [3] = test system: zona pellucida-eliminated ovum; details: frozen C57BL/6 sperms
smiles,measurement,setting,value
"N[C@@H](CCC(=O)N[C@@H](CS)C(=O)NCC(=O)O)C(=O)O [glutathione, reduced glutathione]",offspring development rate,[1],53.8%
same,offspring development rate (offspring/transplanted embryos),[1],43/80
same,effect of treating unfertilized ovums on fertilization rate,[2]; glutathione 1 mM in IVF medium,remarkable improvement in fertilization rate
same,number of 2-cell stage embryo(%),"[2]; glutathione + (1 mM), IVF glutathione −",15%
same,number of 2-cell stage embryo,"[2]; glutathione + (1 mM), IVF glutathione −, 344 oocytes",53
same,number of 2-cell stage embryo(%),"[2]; glutathione +, IVF glutathione +",38%
same,number of 2-cell stage embryo,"[2]; glutathione +, IVF glutathione +, 371 oocytes",140
same,number of 2-cell stage embryo(%),"[2]; glutathione −, IVF glutathione + (1 mM)",36%
same,number of 2-cell stage embryo,"[2]; glutathione −, IVF glutathione + (1 mM), 381 oocytes",136
same,effect of sperm pre-incubation on fertilization rate,"[2]; sperms pre-incubated with 1 mM glutathione or 0.75 mM MBCD, 37° C., 30 minutes",improvement in fertilization rate was not observed
same,fertilization and development of zona pellucida-eliminated ovum,[3]; glutathione 100 mM pre-treatment,fertilization occurred and the development of an ovum (ovum division) was confirmed
same,embryos developed to the blastocyst stage,[3]; of 70 zona pellucida-eliminated embryos (glutathione 100 mM),66
